Results reported in EP4813403A1, “USE OF GLP-1R/GIPR DOUBLE-TARGET AGONIST IN PREPARING ANIMAL DRUG” (Hangzhou Zhongmeihuadong Pharmaceutical Co., Ltd., priority 2023, dated 2025).

What was measured:
db/db mice = assay: Multiple administration experiment on db/db mice; assay type: in vivo; conditions: for Efficacy Dose: db/db mice multiple administrations, dose with blood glucose AUC p<0.05 vs. Vehicle; for AUC 4-25 day Glu / D28 FBG(Fasting Blood Glucose) / Liver Weight / Serum ALT / Serum TBIL / Serum TG: db/db mice, s.c. every 3 days for 4 weeks, Mean±SEM, 6 mice
Protocol: "Minimum effective dose" as disclosed in the present invention refers to the minimum administration dose at which the drug effect is produced.
"Efficacy dose" as disclosed in the present invention refers to the administration dose at which the drug effect is produced.
In this study, 7-8 week old male db/db mice were used. The db/db mice were placed in an individual ventilated cage (IVC) facility with a controlled temperature (20-26°C) and humidity (40-70%) and a controlled 12:12 h light-dark cycle. The mice received food and water ad libitum. Blood were sampled at the tail tip, and the base blood glucose was measured by a Roche blood glucose meter. The mice were randomly divided into groups according to the initial blood glucose and initial body weight (n=6/group), and each group had similar body weight and blood glucose.
The mice were subcutaneously administrated every 3 days for 4 weeks. Subcutaneous administration was conducted on days 1, 4, 7, 10, 13, 16, 19, 22 and 25. Random blood glucose was recorded every 3 days throughout the study. On day 28, the fasting blood glucose was measured. Then the blood was collected by orbital blood sampling. After the orbital blood sampling, the animals were sacrificed, and the liver was taken and weighed. After 1 to 2 hours, the collected blood was centrifuged at 3000 rpm for 10 min to separate the serum. Biochemical indicators such as triglyceride (TG), alanine aminotransferase (ALT), and total bilirubin (TBIL) were determined with a biochemical analyzer. The data results were statistically analyzed using GraphPad Prism8, and the statistical differences among the groups were analyzed following T-Test. Significant differences were identified at p<0.05.

[1] = Repeated administration on male rats for 2 weeks (toxicity, toxicokinetics); assay type: in vivo, SD male rats; conditions: for MTD: MTD for 2 weeks, rats; for dose at which decrease of the body weight was observed after the first administration / accumulation (toxicokinetic) / MTD at 336 h: SD male rats; for Gross Anatomy: SD male rats, 1, 3, 10 mg/kg twice a week for 2 weeks; for accumulation (toxicokinetic) / MTD at 336 h: administered twice a week for 2 weeks; for MTD at 336 h: Sprague-Dawley; for MTD at 336 h / safety window (based on exposure), times of that of Tirzepatide: rat, in vivo; for Safety Window (based on dosage): rat 2-week MTD versus efficacy dose
Protocol: 77 SD male rats (SPF grade) were selected and randomly divided into 10 groups based on body weight. Group 1 was the vehicle control group, including 5 animals. […] Group 5 to Group 7 were the groups administrated with the test substance 1; and Group 8 to Group 10 were the groups administrated with the test substance 2, each group including 8 animals, wherein 5 animals for primary test, and 3 animals for toxicokinetics test, and the administration dose was 1, 3 and 10 mg/kg respectively. Each of the above groups was continuously administered twice a week for 2 weeks (administrating at Day 1, Day 5, Day 8, Day 12 and Day 15).
During the experiment, the cage condition monitoring, detailed clinical observations, determination of the food consumption, determination of body weight, measurement of the blood biochemical and hematology indicator, investigation of the gross anatomy, weighing of the organ, studying on toxicokinetic were performed on all the groups of the animals.
Original data during each time period was tabulated. The average values and standard deviations and/or group change were calculated for each assay endpoint based on the group and sex. For each endpoint, the administrated group will be compared with the control group in the following aspect. A logarithmic conversion was performed to the endpoint data as desired prior to the start of the specific analyses.

[2] = Pharmacokinetics following single administration in SD rats; conditions: male, Sprague-Dawley, rat, in vivo, sc
How it was run: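 Male SD rats (230-268 g, n=3) dosed once at 50.0 nmol/kg s.c. or 25.0 nmol/kg i.v. Plasma proteins precipitated with acetonitrile containing internal standards; drug levels quantified by LC-MS/MS.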

[3] = Pharmacokinetics in cynomolgus monkeys; conditions: cynomolgus monkey, in vivo
Protocol: After subcutaneous or intravenous administration to cynomolgus monkeys, plasma was collected and the drug concentration in plasma was determined to illustrate the in vivo pharmacokinetic properties of the compound according to the present invention. […] 70.0 µL of thawed plasma sample was taken. 70 µL of acetonitrile (containing 1 ng/ml of the internal standard) was added to precipitate protein. […] The mixture was vortexed for 5 minutes. 10 µL of the mixture solution was sampled and injected into the LC-MS/MS to determine the drug concentration in plasma. […] Table 9 Average Pharmacokinetic Parameters after Single Subcutaneous Administration to Cynomolgus Monkeys

[4] = SD rats, subcutaneous injection, 50 nmol/kg
[5] = sc, cynomolgus monkeys, single subcutaneous administration, 25 nmol/kg
[6] = cynomolgus monkeys, single intravenous administration, 12.5 nmol/kg

Structure (SMILES) | Efficacy Dose (db/db mice) | AUC 4-25 day Glu (db/db mice; 3 nmol/kg) | D28 FBG(Fasting Blood Glucose) (db/db mice; 3 nmol/kg) | Liver Weight (db/db mice; 3 nmol/kg) | Serum ALT (db/db mice; 3 nmol/kg) | Serum TBIL (db/db mice; 3 nmol/kg) | Serum TG (db/db mice; 3 nmol/kg) | AUC 4-25 day Glu (db/db mice; 10 nmol/kg) | D28 FBG(Fasting Blood Glucose) (db/db mice; 10 nmol/kg) | Liver Weight (db/db mice; 10 nmol/kg) | Serum ALT (db/db mice; 10 nmol/kg) | Serum TBIL (db/db mice; 10 nmol/kg) | Serum TG (db/db mice; 10 nmol/kg) | AUC 4-25 day Glu (db/db mice; 30 nmol/kg) | D28 FBG(Fasting Blood Glucose) (db/db mice; 30 nmol/kg) | Liver Weight (db/db mice; 30 nmol/kg) | Serum ALT (db/db mice; 30 nmol/kg) | Serum TBIL (db/db mice; 30 nmol/kg) | Serum TG (db/db mice; 30 nmol/kg) | MTD [1] | other results
CC[C@H](C)[C@H](NC(=O)C(C)(C)NC(=O)[C@H](Cc1ccc(O)cc1)NC(=O)[C@H](CC(=O)O)NC(=O)[C@H](CO)NC(=O)[C@@H](NC(=O)C(C)(Cc1ccccc1)NC(=O)[C@@H](NC(=O)CNC(=O)[C@H](CCC(=O)O)NC(=O)C(C)(C)NC(=O)[C@@H](N)Cc1ccc(O)cc1)[C@@H](C)O)[C@@H](C)O)C(=O)NC(C)(C)C(=O)N[C@@H](CC(C)C)C(=O)N[C@@H](CC(=O)O)C(=O)N[C@@H](CCCCN)C(=O)N[C@@H](CCC(N)=O)C(=O)N[C@@H](C)C(=O)N[C@@H](CCC(N)=O)C(=O)N[C@@H](C)C(=O)N[C@@H](CCC(=O)O)C(=O)N[C@@H](Cc1ccccc1)C(=O)N[C@H](C(=O)N[C@@H](CCCCNC(=O)COCCOCCNC(=O)COCCOCCNC(=O)CC[C@H](NC(=O)CCCCCCCCCCCCCCCCCCCCC(=O)O)C(=O)O)C(=O)N[C@@H](Cc1c[nH]c2ccccc12)C(=O)N[C@@H](CC(C)C)C(=O)N[C@@H](CC(C)C)C(=O)N[C@@H](CCCCN)C(=O)NCC(=O)NCC(=O)N1CCC[C@H]1C(=O)N[C@@H](CO)C(=O)N[C@@H](CO)C(=O)NCC(=O)N[C@@H](C)C(=O)N1CCC[C@H]1C(=O)N1CCC[C@H]1C(=O)N1CCC[C@H]1C(=O)N[C@@H](CO)C(=O)N[C@@H](CCCCN)C(N)=O)C(C)C (stereo partly shown) [Compound P014] | 3 nmol/kg | 294 ± 40.43 mmol·days/L | 10.22 ± 1.58 mmol/L | 2.26 ± 0.18 g | 111.24±13.23 U/L | 0.58 ± 0.11 µmol/L | 1.39 ± 0.07 mmol/L | 214.4 ± 33.73 mmol·days/L | 10.72 ± 1.75 mmol/L | 2.1 ± 0.14 g | 89.9±8.66 U/L | 0.58 ± 0.15 µmol/L | 1.29 ± 0.03 mmol/L | 190.62 ± 26.47 mmol·days/L | 13.38 ± 3.38 mmol/L | 1.89 ± 0.31 g | 106.47±14.3 U/L | 0.36 ± 0.15 µmol/L | 1.14 ± 0.18 mmol/L | 1980 nmol/kg (MTD for 2 weeks) | dose at which decrease of the body weight was observed after the first administration [1]: ≥ 1 mg/kg; Gross Anatomy [1]: no abnormalities were found; accumulation (toxicokinetic) [1]: no substantial accumulation; MTD at 336 h [1]: ≥ 10 mg/kg; Safety Window (based on dosage) [1]: 1319; safety window (based on exposure), times of that of Tirzepatide [1]: more than 4 times; Tmax [2]: 24 h; half-life [2]: 14.8 ± 0.503 h; Tmax ([3]; sc): 16 ± 6.93 h; half-life ([3]; sc): 52.7 ± 6.45 h
CC[C@H](C)[C@H](NC(=O)C(C)(C)NC(=O)[C@H](Cc1ccc(O)cc1)NC(=O)[C@H](CC(=O)O)NC(=O)[C@H](CO)NC(=O)[C@@H](NC(=O)C(C)(Cc1ccccc1)NC(=O)[C@@H](NC(=O)CNC(=O)[C@H](CCC(=O)O)NC(=O)C(C)(C)NC(=O)[C@@H](N)Cc1ccc(O)cc1)[C@@H](C)O)[C@@H](C)O)C(=O)NC(C)(C)C(=O)N[C@@H](CC(C)C)C(=O)N[C@@H](CC(=O)O)C(=O)N[C@@H](CCCCN)C(=O)N[C@@H](CCC(N)=O)C(=O)N[C@@H](C)C(=O)N[C@@H](CCC(N)=O)C(=O)N[C@@H](C)C(=O)N[C@@H](CCC(=O)O)C(=O)N[C@@H](Cc1ccccc1)C(=O)N[C@H](C(=O)N[C@@H](CCCCNC(=O)COCCOCCNC(=O)COCCOCCNC(=O)COCCOCCNC(=O)CC[C@H](NC(=O)CCCCCCCCCCCCCCCCCCCCC(=O)O)C(=O)O)C(=O)N[C@@H](Cc1c[nH]c2ccccc12)C(=O)N[C@@H](CC(C)C)C(=O)N[C@@H](CC(C)C)C(=O)N[C@@H](CCCCN)C(=O)NCC(=O)NCC(=O)N1CCC[C@H]1C(=O)N[C@@H](CO)C(=O)N[C@@H](CO)C(=O)NCC(=O)N[C@@H](C)C(=O)N1CCC[C@H]1C(=O)N1CCC[C@H]1C(=O)N1CCC[C@H]1C(=O)N[C@@H](CO)C(=O)N[C@@H](CCCCN)C(N)=O)C(C)C (stereo partly shown) [Compound P016] | 3 nmol/kg | 256.38 ± 22 mmol·days/L | 10.42 ± 1.46 mmol/L | 2.24 ± 0.1 g | 137.93±34.59 U/L | 0.82 ± 0.13 µmol/L | 1.21 ± 0.04 mmol/L | 249.25 ± 41.42 mmol·days/L | 12.5 ± 2.19 mmol/L | 1.98 ± 0.12 g | 128.94±16.93 U/L | 1.22 ± 0.28 µmol/L | 1.22 ± 0.24 mmol/L | 163.98 ± 11.57 mmol·days/L | 6.05 ± 0.41 mmol/L | 1.78 ± 0.08 g | 97.7±12.36 U/L | 0.73 ± 0.16 µmol/L | 1.2 ± 0.05 mmol/L | 1924 nmol/kg (MTD for 2 weeks) | dose at which decrease of the body weight was observed after the first administration [1]: ≥ 1 mg/kg; Gross Anatomy [1]: no abnormalities were found; accumulation (toxicokinetic) [1]: no substantial accumulation; MTD at 336 h [1]: ≥ 10 mg/kg; Safety Window (based on dosage) [1]: 1282; safety window (based on exposure), times of that of Tirzepatide [1]: more than 7 times; AUC(0-inf) [2, 4]: 5.07 ± 0.262 µM·h; AUC(0-t) [2, 4]: 4.84 ± 0.27 µM·h; Cmax [2, 4]: 119 ± 7 nM; half-life ([2]; SD rats, subcutaneous injection, 50 nmol/kg, read-out: T1/2 (converted)): 14.1 ± 0.153 h; Tmax ([2]; SD rats, subcutaneous injection, 50 nmol/kg, read-out: Tmax): 24 h; AUC(0-inf) [3, 5]: 323 ± 44.6 µg·h/mL; AUC(0-t) [3, 5]: 319 ± 41.5 µg·h/mL; Cmax [3, 5]: 3000 ± 481 ng/mL; half-life ([3]; sc, cynomolgus monkeys, single subcutaneous administration, 25 nmol/kg, read-out: T1/2 (converted)): 60.4 ± 12.8 h; Tmax ([3]; sc, cynomolgus monkeys, single subcutaneous administration, 25 nmol/kg, read-out: Tmax): 40 ± 13.9 h; AUC(0-inf) [3, 6]: 80 ± 21.1 µg·h/mL; AUC(0-t) [3, 6]: 78.2 ± 20.3 µg·h/mL; C0 [3, 6]: 1700 ± 335 ng/mL; half-life ([3]; cynomolgus monkeys, single intravenous administration, 12.5 nmol/kg, read-out: T1/2 (converted)): 59.8 ± 8.95 h
